The values below come from US20060252800A1, “Anti-leishmania agent” (priority 2003, published 2006).

The test system of the assay is Leishmania (L. major). Kind of assay: Leishmania protozoa proliferation inhibition assay. The settings on record: for OD level (number of viable Leishmania protozoa): 48 hours at 27° C., absorbance 450 nm minus 630 nm; for IC50: calculated from the graphs of FIGS. 1 to 4 (concentration vs number of viable leishmania protozoa), read-out: Concentration inhibiting 50% leishmania proliferation. It is filed as cell-based. On the procedure: After dissolving each of the obtained compounds in dimethylsulfoxide (hereinafter referred to as DMSO), the resultant was diluted by 9 steps in Medium 199 medium (Invitrogen) to the indicated concentration, filtrated with a membrane filter, and each of the filtration was made as a sample solution. […] By keeping the solution at 27° C., incubation was performed under 5% CO2, for 48 hours. Then, TetraColor ONE (tradename: Seikagaku Corporation) reagent was added thereto and further incubated for 6 hours. Then, the absorbance at a wavelength of 450 nm was measured for the 96-well microtiter plate with a microplate reader, the wave length of 630 nm was made as reference wave length, and in order to exclude background effect, the absorbance at 630 nm was excluded from the one at 450 nm, and the OD level was calculated as a level to indicate the number of viable Leishmania protozoa. The assay was performed by three wells at a time for each concentration of each sample, and the mean level was made as OD level. […] Amphotericin B was used as positive control. […] Inhibiting effect against […] protozoa for each sample was similar or more compared with that of Amtephotericin B.

Setting [1] is: Table 3, sample concentration 0.001 mg/ml.
[2] abbreviates: Table 3, sample concentration 0.002165 mg/ml.
[3] abbreviates: Table 3, sample concentration 0.0072171 mg/ml.
Where [4] appears, read: Table 3, sample concentration 0.02406 mg/ml.
Where [5] appears, read: Table 3, sample concentration 0.08019 mg/ml.
The mark [6] stands for this setting: Table 3, sample concentration 0.2673 mg/ml.
The mark [7] stands for this setting: Table 3, sample concentration 0.891 mg/ml.
[8] abbreviates: Table 3, sample concentration 2.97 mg/ml.
Setting [9] is: Table 3, sample concentration 9.9 mg/ml.
Setting [10] is: Table 3, sample concentration 33 mg/ml.
The mark [11] stands for this setting: Table 1, sample concentration 0.001 mg/ml.
Where [12] appears, read: Table 1, sample concentration 0.016384 mg/ml.
Setting [13] is: Table 1, sample concentration 0.04096 mg/ml.
Setting [14] is: Table 1, sample concentration 0.1024 mg/ml.
Where [15] appears, read: Table 1, sample concentration 0.256 mg/ml.
Setting [16] is: Table 1, sample concentration 0.64 mg/ml.
[17] abbreviates: Table 1, sample concentration 1.6 mg/ml.
Where [18] appears, read: Table 1, sample concentration 4 mg/ml.
Where [19] appears, read: Table 1, sample concentration 10 mg/ml.
The mark [20] stands for this setting: Table 1, sample concentration 25 mg/ml, mean of three wells.

As to `CCn1c(=Cc2sc3ccccc3[n+]2C)sc(=C2Sc3ccc4ccccc4c3N2C)c1=O.Cc1ccc(S(=O)(=O)[O-])cc1` [IV (m), 2-[{5-(3-methyl-2(3H)-benzobenzo[e]thiazolilidene)-4-oxo-3-ethyl-2-thiazolidinylidene}methyl]-1-methylbenzothiazolium=p-toluenesulfonate], the IC50 was 2700 nM. Under setting [1], the “OD level (number of viable Leishmania protozoa)” value (shortened to “OD level”) turned out to be 0.340. For the same compound, under setting [2], the “OD level” value is given as 0.344. Besides, under setting [3], the “OD level” value came to 0.342. In addition, the “OD level” value under setting [4] came out at 0.354. Moreover, the “OD level” value under setting [5] came out at 0.379. Moreover, the “OD level” value under setting [6] was 0.422. The “OD level” value under setting [7] was found to be 0.385. In addition, the “OD level” value under setting [8] came to 0.149. Under setting [9], the “OD level” value is on record as 0.033. In addition, the “OD level” value under setting [10] came out at 0.027.

Take `CCN1C(=O)CS/C1=C\c1sc2ccccc2[n+]1CC` [V (b), 2-[(4-oxo-3-ethyl-2-thiazolidinylidene)methyl]-3-ethylbenzothiazolium=p-toluenesulfonate]: the IC50 is 1200 nM. Besides, under setting [11], the “OD level” value was found to be 0.441. The “OD level” value under setting [12] is 0.458. Moreover, the “OD level” value under setting [13] came to 0.520. In addition, the “OD level” value under setting [14] is reported as 0.533. For the same compound, the “OD level” value under setting [15] is reported as 0.363. Moreover, the “OD level” value under setting [16] amounted to 0.145. Under setting [17], the “OD level” value came to 0.047. The “OD level” value under setting [18] is given as 0.040. The “OD level” value under setting [19] is given as 0.042. Besides, the “OD level” value under setting [20] amounted to 0.056.

For the compound `CCn1c(=Cc2cccc[n+]2CC)sc(=C2Sc3ccccc3N2C)c1=O.[Cl-]` [IV (i), 2-[{5-(3-methyl-2(3H)-benzothiazolylidene)-4-oxo-3-ethyl-2-thiazolidinylidene}methyl]-1-ethylpyridinium=chloride], the IC50 was 460 nM. Further, under setting [11], the “OD level” value came to 0.451. Also, under setting [12], the “OD level” value came out at 0.504. Also, under setting [13], the “OD level” value turned out to be 0.482. In addition, the “OD level” value under setting [14] came out at 0.478. For the same compound, the “OD level” value under setting [15] is recorded as 0.153. Further, the “OD level” value under setting [16] came out at 0.086. Besides, the “OD level” value under setting [17] was 0.039. In addition, the “OD level” value under setting [18] is 0.033. Under setting [19], the “OD level” value is on record as 0.030. The “OD level” value under setting [20] was determined as 0.026.

Take `CN1C(=c2sc(=Cc3sc4ccccc4[n+]3C)n(CC3CCCO3)c2=O)Sc2ccccc21.Cc1ccc(S(=O)(=O)[O-])cc1` (stereo not shown) [IV (k), 2-[{5-(3-methyl-2(3H)-benzothiazolylidene)-4-oxo-3-(2-tetrahydrofuranyl)methyl-2-thiazolidinylidene}methyl]-1-methylbenzothiazolium=p-toluenesulfonate]: the IC50 is 2600 nM. The “OD level” value under setting [1] stood at 0.338. For the same compound, the “OD level” value under setting [2] was 0.356. Further, the “OD level” value under setting [3] worked out at 0.344. In addition, the “OD level” value under setting [4] is on record as 0.341. The “OD level” value under setting [5] is 0.351. In addition, the “OD level” value under setting [6] amounted to 0.348. For the same compound, under setting [7], the “OD level” value worked out at 0.371. The “OD level” value under setting [8] was determined as 0.434. In addition, the “OD level” value under setting [9] is recorded as 0.154. Further, the “OD level” value under setting [10] came to 0.029.

With `CCn1c(=Cc2cc[n+](C)cc2)sc(=C2Sc3ccccc3N2C)c1=O.Cc1ccc(S(=O)(=O)[O-])cc1` [IV (j), 4-[(5-(3-methyl-2(3H)-benzothiazolylidene)-4-oxo-3-ethyl-2-thiazolidinylidene}methyl]-1-methylpyridinium=p-toluenesulfonate], the IC50 was 10000 nM. Also, the “OD level” value under setting [11] is listed as 0.446. Also, the “OD level” value under setting [12] worked out at 0.462. Moreover, the “OD level” value under setting [13] worked out at 0.468. Besides, under setting [14], the “OD level” value is 0.518. The “OD level” value under setting [15] turned out to be 0.661. Also, under setting [16], the “OD level” value was 0.793. Under setting [17], the “OD level” value is 0.551. The “OD level” value under setting [18] is 0.275. Moreover, the “OD level” value under setting [19] is reported as 0.188. The “OD level” value under setting [20] is 0.057.

Consider `CCn1c(=Cc2sc3ccccc3[n+]2C)sc(=C2C=Cc3ccccc3N2C)c1=O.Cc1ccc(S(=O)(=O)[O-])cc1` [IV (d)], for which the “OD level” value came to 0.346 under setting [1]; 0.357 under setting [2]; 0.339 under setting [3]; 0.341 under setting [4]; 0.359 under setting [5]; 0.348 under setting [6]. Moreover, the “OD level” value is given as 0.365 under setting [7], 0.395 under setting [8], 0.344 under setting [9] and 0.035 under setting [10].

In the case of `CCn1c(=Cc2sc3ccc4ccccc4c3[n+]2C)sc(=C2Sc3ccccc3N2C)c1=O.Cc1ccc(S(=O)(=O)[O-])cc1` [IV (g), 2-[{5-(3-methyl-2(3H)-benzothiazolylidene)-4-oxo-3-ethyl-2-thiazolidinylidene}methyl]-3-methylbenzo[e]benzothiazolium=p-toluenesulfonate], the IC50 was 12 nM. Further, under “Table 2, sample concentration 0.0001 mg/ml”, the “OD level” value turned out to be 0.352. In addition, the “OD level” value (Table 2, sample concentration 0.0007 mg/ml) stood at 0.368. In addition, the “OD level” value (Table 2, sample concentration 0.002 mg/ml) amounted to 0.253. The “OD level” value (Table 2, sample concentration 0.008 mg/ml) is 0.121. The “OD level” value (Table 2, sample concentration 0.025 mg/ml) is listed as 0.055. Moreover, the “OD level” value (Table 2, sample concentration 0.084 mg/ml) came out at 0.032. Also, the “OD level” value (Table 2, sample concentration 0.279 mg/ml) stood at 0.030. The “OD level” value (Table 2, sample concentration 0.93 mg/ml) is reported as 0.031. In addition, for the setting “Table 2, sample concentration 3.1 mg/ml”, the “OD level” value was 0.029. Where the note is “Table 2, sample concentration 2E−04 mg/ml”, the “OD level” value amounted to 0.448.
